According to patent publication US20250389737A1, “FACTOR Xa REAGENT” (Instrumentation Laboratory Company, priority 2024, published 2025):
Structures can show the parent of a compound that is named as a salt.

Tests used:
[1] = target: T1, factor Xa (Homo sapiens, UniProt P00742); assay: substrate turnover rates at different factor Xa levels, 1,1-dimethylguanidine compared with NaCl (FIG. 6); format: biochemical; settings: 22 mM 1,1-dimethylguanidine vs 33 mM NaCl, 1.5 mM S-2732, 37° C., 405 nm
Protocol: Guanidine derivatives modulate factor Xa enzymatic activity in a reaction, as explained previously, thereby slowing-down the reaction. As a result, greater amounts and/or concentrations of factor Xa can be used in a reaction when a guanidine derivative is incorporated into the reaction. In this experiment, factor Xa levels were tested in a reaction in triplicate at 37° C. as follows: 40 μL of factor Xa was incubated for 20 s to 60 s before 40 μL of 100 mM 1,1-dimethylguanidine or 150 mM NaCl in water was added to the reaction. After an incubation period of 150 s to 180 s, 100 μL of 1.5 mM factor Xa chromogenic substrate S-2732™ was added to the reaction and mAbs/min at 405 nm was measured after a 20 s delay. In FIG. 6, substrate turnover rates (e.g., coloring of the substrate) in the presence of 22 mM 1,1-dimethylguanidine 601 were compared to substrate turnover rates in the presence of 33 mM NaCl 602. As evident from FIG. 6, greater amounts and/or concentrations of factor Xa can be added to the reaction in the presence of 1,1-dimethylguanidine to produce the same substrate turnover rates relative to NaCl. […] Greater amounts and/or concentrations of factor Xa facilitate detection of factor Xa inhibitors or reversal of such inhibitors in an assay, as noted previously.

[2] = target: T1, factor Xa; assay: chromogenic factor Xa activity in a plasma sample containing dimethylguanidine, 9:1 sample to factor Xa ratio (FIG. 7); format: biochemical; settings: 50 mM vs 25 mM dimethylguanidine, 1.5 mM S-2732, 37° C.
Protocol: In this experiment, 180 μL of a plasma sample containing dimethylguanidine (DMG) and 1.5 mM substrate S-2732™ were mixed with 20 μL of factor Xa (a 9:1 sample to factor Xa ratio). The activity of factor Xa was determined at 37° C. based on chromogenic activity of the substrate. The activity of factor Xa linearly correlates with the factor Xa concentration in the presence of dimethylguanidine. […] Thus, increasing the amount of dimethylguanidine in a sample reduces a rate of the reaction. In some implementations, dimethylguanidine can be added to a reaction at a concentration of up to about 500 mM.

[3] = target: T1, factor Xa; settings: 6 nkat/mL factor Xa in 20 mM Hepes pH 7.5, 1.5 mM substrate S-2732, 37° C., mAbs/min at 405 nm, concentrations in mM
Protocol: In this experiment, activity of factor Xa in the presence of guanidine sulfate and its derivatives (e.g., 1-methylguanidine sulfate, 1,1-dimethylguanidine sulfate, 1,1-diethylguanidine, N-benzyl, N-methylguanidine sulfate, 1,1,3,3-tetramethylgunidine and 1,1-dimethylbiguanide HCl) was evaluated using a chromogenic assay. In the experiment, each guanidine derivative was dissolved in deionized (DI) water to a final concentration of 100 mM. A number of such guanidine dilutions were prepared. Guanidine derivative levels in the solutions were tested in triplicate at 37° C. as follows: 40 μL (microliters) of each guanidine derivative level was incubated for 20 seconds(s) to 60 s before 40 μL of 6 nkat/mL factor Xa in 20 mM Hepes pH 7.5 buffer was added to the reaction. After an incubation period of 150 s to 180 s, 100 μL of 1.5 mM factor Xa chromogenic substrate S-2732™ was added to the reaction and milli-absorbance per minute (mAbs/min) at 405 nm (nanometers) was measured after a 20 s delay.

[4] = target: T1, factor Xa; assay: chromogenic assay of the effects of guanidine sulfate and alkylated guanidines on factor Xa activity (FIG. 4); format: biochemical; settings: 6 nkat/mL factor Xa in 20 mM HEPES pH 7.5, 1.5 mM substrate S-2732, mAbs/min at 405 nm, dilution series in water
Protocol: In this experiment, the effects of guanidine sulfate and the guanidine derivatives: 1-methylguanidine sulfate, 1,1-dimethylguanidine sulfate, 1,1-diethylguanidine, and N-benzyl, N-methylguanidine sulfate were analyzed using a chromogenic assay. A number of dilutions were prepared in water with guanidine or a guanidine derivative of the type described herein. 40 μL of each of the guanidine or guanidine derivatives were mixed for 20 s to 60 s with 40 μL of 6 nkat/mL factor Xa diluted in 20 mM HEPES, pH 7.5 buffer. After an incubation period of 150 s to 180 s, 100 μL of the factor Xa chromogenic substrate S-2732™ (1.5 mM) was added to each of the guanidine and factor Xa mixtures and each mixture was chromogenically measured at 405 nm mAbs/min after a 20 s delay.

T1 sequence (P00742 235-488 limits assumed): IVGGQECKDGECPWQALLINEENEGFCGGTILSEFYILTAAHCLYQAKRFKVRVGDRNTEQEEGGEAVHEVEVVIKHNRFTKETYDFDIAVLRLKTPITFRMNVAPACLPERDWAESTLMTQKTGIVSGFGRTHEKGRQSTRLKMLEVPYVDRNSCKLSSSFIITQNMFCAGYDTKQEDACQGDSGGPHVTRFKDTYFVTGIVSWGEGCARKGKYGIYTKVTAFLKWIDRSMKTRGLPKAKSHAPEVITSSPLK
T1 sequence (P00742 41-179 partner limits assumed): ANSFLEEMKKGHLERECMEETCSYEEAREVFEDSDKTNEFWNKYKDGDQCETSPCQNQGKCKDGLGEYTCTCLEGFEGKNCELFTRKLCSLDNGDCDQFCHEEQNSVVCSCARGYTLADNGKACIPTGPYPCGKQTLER

Row | Compound | factor Xa activity plotted against guanidine derivative or NaCl concentration [3] | extent of factor Xa inhibition [4] | other results
1 | CN(C)C(=N)N [1,1-dimethylguanidine] |  |  | substrate turnover rates (reaction rate) relative to NaCl [1]: slowed-down; rate of the factor Xa reaction (chromogenic activity) [2]: slows reaction of the factor Xa in a sample greater than 25 mM of dimethylguanidine
2 | [Cl-].[Na+] [NaCl, reference compound] | activates factor Xa activity |  | 
3 | N=C(N)N [guanidine sulfate] | modulate factor Xa dose-dependently, although less than 1-methylated guanidine sulfate | least amount of reduction in factor Xa inhibition | 
4 | CCN(CC)C(=N)N.O=S(=O)(O)O [1,1-diethylguanidine sulfate] |  | largest extent of factor Xa inhibition | 
5 | CNC(=N)N [1-methylguanidine sulfate] | modulates factor Xa dose-dependently | reduced factor Xa inhibition as compared to the factor Xa inhibition of mixtures containing dialkylated guanidine derivatives | 
6 | CN(Cc1ccccc1)C(=N)N.O=S(=O)(O)O [N-benzyl N-methylguanidine sulfate] |  | reduced factor Xa inhibition as compared to the factor Xa inhibition of mixtures containing dialkylated guanidine derivatives | 
7 | CN(C)C(=N)NC(=N)N [1,1-dimethyl-biguanide, reference compound] | modulate factor Xa dose-dependently, although less than 1-methylated guanidine sulfate |  | 
8 | CN(C)C(=N)N.O=S(=O)(O)O [1,1-dimethylguanidine sulfate] |  | largest extent of factor Xa inhibition | 
